Each structure is given as a SMILES string. Counter-ions that a name gives are not always drawn.

The test system of the assay is bacterial strains that express KPC β-lactamases. As to the kind of experiment: Synergy MIC / standard BLI potentiation MIC assay against strains expressing KPC β-lactamases. Type of assay: cell-based. The conditions noted are these: in the presence of a β-lactam; comparator Avibactam. On the procedure:
The experimental protocol was performed according to Clinical and Laboratory Standards Institute (CLSI) guidelines with modifications as described below (CLSI guidelines can be derived from the CLSI document M07-A9 published in January 2012: “Methods for Dilution Antimicrobial Susceptibility Tests for Bacteria That Grow Aerobically; Approved Standard-Ninth Edition”).
To prepare for MIC testing, frozen glycerol stocks of clinical isolates (Klebsiella pneumoniae, Eschericia coli, Enterobacter spp, Citrobacter spp, or Pseudomonas aeruginosa) were used to streak for isolated colonies on rich, non-selective, tryptic soy agar containing 5% sheep's blood (TSAB). Frozen glycerol stocks of laboratory engineered, isogenic E. coli strains, which contain cloned β-lactamase expressing plasmids were used to streak for isolated colonies on rich, selective LB agar supplemented with 25 μg/mL tetracycline to maintain the plasmid. All strains were incubated at 37° C. for 18-24 hrs.
On the day of testing, primary cultures were started by scraping off 5-10 colonies from the TSAB plates containing clinical strains or the tetracycline supplemented LB plates containing engineered strains. The clinical strain material was suspended in ˜5 mL of cation adjusted Mueller Hinton Broth (CAMHB) in 14 mL culture tubes. The engineered strain material was suspended in CAMHB (supplemented with 25 μg/mL tetracycline) in 14 mL culture tubes. All strains were incubated at 37° C. with aeration (200 rpm) for ˜2 hrs until the optical density at 600 nm (OD600) was >0.1.
The two compound components of the assay were each diluted in CAMHB and added to the 96-well broth microdilution assay plates. 50 μL of the β-lactam was added to each well of the assay plate in 2-fold dilutions with final concentrations ranging from 128 to 0.13 μg/mL. 25 μL, of the BLI compound was added to all wells in the broth microdilution plates at a final concentration of 4 μg/mL. Inoculum cultures were prepared by standardizing the primary cultures to OD600=0.1 and then adding 20 μL of the adjusted primary culture per 1 mL CAMHB for clinical strains or CAMHB (supplemented with tetracycline at 100 μg/mL) for engineered strains, so that the final inoculum density was ˜10^5 colony forming units per milliliter. Diluted inoculum cultures were used to inoculate 25 μl, per well in 96-well broth microdilution assay plates. The final volume of each well was 100 μL and contained a β-lactam at different concentrations, a BLIcompound at 4 μg/mL concentration, the bacterial culture at an OD600 of approximately 0.001 and when necessary tetracycline at 25 μg/mL.
Plates were incubated for 18-20 hours at 37° C. with aeration (200 rpm). Following incubation, growth was confirmed visually placing plates over a viewing apparatus (stand with a mirror underneath) and then OD600 was measured using a SpectraMax 340PC384 plate reader (Molecular Devices, Sunnyvale, Calif.). Growth was defined as turbidity that could be detected with the naked eye or achieving minimum OD600 of 0.1. MIC values were defined as the lowest concentration producing no visible turbidity.
The synergy MIC (sMIC) assay determines the concentration of the BLI required to potentiate the activity of a fixed concentration of a β-lactam antibiotic against β-lactamase producing bacterial strains. The experimental protocol was performed according to Clinical and Laboratory Standards Institute (CLSI) guidelines with modifications as described below (CLSI guidelines can be derived from the CLSI document M07-A9 published in January 2012: “Methods for Dilution Antimicrobial Susceptibility Tests for Bacteria That Grow Aerobically; Approved Standard-Ninth Edition”). […]
For `N[C@H]1C[C@@H](CCc2nnc([C@@H]3CC[C@@H]4CN3C(=O)N4OS(=O)(=O)O)o2)C1` [Compound 754, (2S,5R)-2-(5-(2-((1s,3S)-3-aminocyclobutyl)ethyl)-1,3,4-oxadiazol-2-yl)-7-oxo-1,6-diazabicyclo[3.2.1]octan-6-yl hydrogen sulfate], the “more active than Avibactam for at least one bacterial strain that expresses KPC β-lactamase and/or better spectrum of activity against KPC strains” value (shortened to “more active than Avibactam … against KPC strains”) is given as “more active than Avibactam”.

`NC1CC(NCc2nnc([C@@H]3CC[C@@H]4CN3C(=O)N4OS(=O)(=O)O)o2)C1` (stereo partly drawn) [Compound 755, (2S,5R)-2-(5-(((3-aminocyclobutyl)amino)methyl)-1,3,4-oxadiazol-2-yl)-7-oxo-1,6-diazabicyclo[3.2.1]octan-6-yl hydrogen sulfate]: the “more active than Avibactam … against KPC strains” value is on record as “more active than Avibactam”.

On to `N[C@H]1C[C@@H](NCc2nnc([C@@H]3CC[C@@H]4CN3C(=O)N4OS(=O)(=O)O)o2)C1` [Compound 756, (2S,5R)-2-(5-((((1s,3R)-3-aminocyclobutyl)amino)methyl)-1,3,4-oxadiazol-2-yl)-7-oxo-1,6-diazabicyclo[3.2.1]octan-6-yl hydrogen sulfate], for which the “more active than Avibactam … against KPC strains” value was “more active than Avibactam”.

Regarding `O=C1N2C[C@@H](CC[C@H]2c2nnc([C@H]3CCNC3)o2)N1OS(=O)(=O)O` [Compound 758, (2S,5R)-7-oxo-2-(5-((S)-pyrrolidin-3-yl)-1,3,4-oxadiazol-2-yl)-1,6-diazabicyclo[3.2.1]octan-6-yl hydrogen sulfate], the “more active than Avibactam … against KPC strains” value is recorded as “more active than Avibactam”.

Consider `O=C1N2C[C@@H](CC[C@H]2c2nnc([C@@H]3CCNC3)o2)N1OS(=O)(=O)O` [Compound 759, (2S,5R)-7-oxo-2-(5-((R)-pyrrolidin-3-yl)-1,3,4-oxadiazol-2-yl)-1,6-diazabicyclo[3.2.1]octan-6-yl hydrogen sulfate], for which the “more active than Avibactam … against KPC strains” value is “more active than Avibactam”.

Consider `N[C@@H]1CN[C@H](c2nnc([C@@H]3CC[C@@H]4CN3C(=O)N4OS(=O)(=O)O)o2)C1` [Compound 760, (2S,5R)-2-(5-((2S,4S)-4-aminopyrrolidin-2-yl)-1,3,4-oxadiazol-2-yl)-7-oxo-1,6-diazabicyclo[3.2.1]octan-6-yl hydrogen sulfate], for which the “more active than Avibactam … against KPC strains” value is on record as “more active than Avibactam”.

With `N[C@H]1CN[C@@H](c2nnc([C@@H]3CC[C@@H]4CN3C(=O)N4OS(=O)(=O)O)o2)C1` [Compound 761, (2S,5R)-2-(5-((2R,4R)-4-aminopyrrolidin-2-yl)-1,3,4-oxadiazol-2-yl)-7-oxo-1,6-diazabicyclo[3.2.1]octan-6-yl hydrogen sulfate], the “more active than Avibactam … against KPC strains” value is on record as “more active than Avibactam”.

As to `N[C@H]1CN[C@H](c2nnc([C@@H]3CC[C@@H]4CN3C(=O)N4OS(=O)(=O)O)o2)C1` [Compound 762, (2S,5R)-2-(5-((2S,4R)-4-aminopyrrolidin-2-yl)-1,3,4-oxadiazol-2-yl)-7-oxo-1,6-diazabicyclo[3.2.1]octan-6-yl hydrogen sulfate], the “more active than Avibactam … against KPC strains” value was “more active than Avibactam”.

On to `N[C@@H]1CN[C@@H](c2nnc([C@@H]3CC[C@@H]4CN3C(=O)N4OS(=O)(=O)O)o2)C1` [Compound 763, (2S,5R)-2-(5-((2R,4S)-4-aminopyrrolidin-2-yl)-1,3,4-oxadiazol-2-yl)-7-oxo-1,6-diazabicyclo[3.2.1]octan-6-yl hydrogen sulfate], for which the “more active than Avibactam … against KPC strains” value is “more active than Avibactam”.

In the case of `O=C1N2C[C@@H](CC[C@H]2c2nnc(CC3CCNC3)o2)N1OS(=O)(=O)O` (stereo partly drawn) [Compound 764, (2S,5R)-7-oxo-2-(5-(pyrrolidin-3-ylmethyl)-1,3,4-oxadiazol-2-yl)-1,6-diazabicyclo[3.2.1]octan-6-yl hydrogen sulfate], the “more active than Avibactam … against KPC strains” value is listed as “more active than Avibactam”.

Regarding `O=C1N2C[C@@H](CC[C@H]2c2nnc(CN[C@H]3CCNC3)o2)N1OS(=O)(=O)O` [Compound 765, (2S,5R)-7-oxo-2-(5-(((S)-pyrrolidin-3-ylamino)methyl)-1,3,4-oxadiazol-2-yl)-1,6-diazabicyclo[3.2.1]octan-6-yl hydrogen sulfate], the “more active than Avibactam … against KPC strains” value is given as “more active than Avibactam”.

For `O=C1N2C[C@@H](CC[C@H]2c2nnc(CN[C@@H]3CCNC3)o2)N1OS(=O)(=O)O` [Compound 766, (2S,5R)-7-oxo-2-(5-(((R)-pyrrolidin-3-ylamino)methyl)-1,3,4-oxadiazol-2-yl)-1,6-diazabicyclo[3.2.1]octan-6-yl hydrogen sulfate], the “more active than Avibactam … against KPC strains” value is given as “more active than Avibactam”.

Regarding `N=C1NCC(c2nnc([C@@H]3CC[C@@H]4CN3C(=O)N4OS(=O)(=O)O)o2)N1` (stereo partly drawn) [Compound 767, (2S,5R)-2-(5-(2-iminoimidazolidin-4-yl)-1,3,4-oxadiazol-2-yl)-7-oxo-1,6-diazabicyclo[3.2.1]octan-6-yl hydrogen sulfate], the “more active than Avibactam … against KPC strains” value is reported as “more active than Avibactam”.

For the compound `N[C@H]1CC[C@@H](c2nnc([C@@H]3CC[C@@H]4CN3C(=O)N4OS(=O)(=O)O)o2)C1` [Compound 768, (2S,5R)-2-(5-((1R,3S)-3-aminocyclopentyl)-1,3,4-oxadiazol-2-yl)-7-oxo-1,6-diazabicyclo[3.2.1]octan-6-yl hydrogen sulfate], the “more active than Avibactam … against KPC strains” value was “more active than Avibactam”.

As for `O=C1N2C[C@@H](CC[C@H]2c2nnc(CCNC3CCNCC3)o2)N1OS(=O)(=O)O` [Compound 770, (2S,5R)-7-oxo-2-(5-(2-(piperidin-4-ylamino)ethyl)-1,3,4-oxadiazol-2-yl)-1,6-diazabicyclo[3.2.1]octan-6-yl hydrogen sulfate], the “more active than Avibactam … against KPC strains” value is listed as “more active than Avibactam”.

As for `O=C1N2C[C@@H](CC[C@H]2c2nnc(CCCNC3CCNCC3)o2)N1OS(=O)(=O)O` [Compound 771, (2S,5R)-7-oxo-2-(5-(3-(piperidin-4-ylamino)propyl)-1,3,4-oxadiazol-2-yl)-1,6-diazabicyclo[3.2.1]octan-6-yl hydrogen sulfate], the “more active than Avibactam … against KPC strains” value is listed as “more active than Avibactam”.

With `O=C1N2C[C@@H](CC[C@H]2c2nnc(CCCCNC3CCNCC3)o2)N1OS(=O)(=O)O` [Compound 772, (2S,5R)-7-oxo-2-(5-(4-(piperidin-4-ylamino)butyl)-1,3,4-oxadiazol-2-yl)-1,6-diazabicyclo[3.2.1]octan-6-yl hydrogen sulfate], the “more active than Avibactam … against KPC strains” value is “more active than Avibactam”.

These data come from patent US8933232B2, “1,3,4-oxadiazole and 1,3,4-thiadiazole beta-lactamase inhibitors” (priority 2012, dated 2015).
